The source made the active and inactive calls. The rule behind the calls is not given here.
Legend:
RKO [1] = experiment: Induction of cell cycle arrest in human RKO cells assessed as accumulation of cells at G2/M phase incubated for 48 hrs by DAPI staining based high-content imaging analysis; assay type: functional
HeLa [2] = experiment: Induction of cell cycle arrest in human HeLa cells assessed as accumulation of cells G2/M phase incubated for 48 hrs by DAPI staining based high-content imaging analysis; assay type: functional
HeLa [3] = experiment: Cytotoxicity against human HeLa cells assessed as inhibition of cell growth incubated for 48 hrs by DAPI staining based high-content imaging analysis; assay type: functional
HeLa [4] = experiment: Binding affinity to F-actin in human HeLa cells assessed as disruption of cytoskeleton organization by measuring transforming regular fibrous into punctuate structure at 50 uM incubated for 48 hrs by tetramethylrhodamine-phalloidin staining based confocal laser scanning microscopy; assay type: cell-based
RKO [5] = experiment: Cytotoxicity against human RKO cells assessed as inhibition of cell growth incubated for 48 hrs by DAPI staining based high-content imaging analysis; assay type: functional
RKO [6] = experiment: Binding affinity to F-actin in human RKO cells assessed as disruption of cytoskeleton organization by measuring transforming regular fibrous into punctuate structure at 33.5 uM incubated for 48 hrs by tetramethylrhodamine-phalloidin staining based confocal laser scanning microscopy; assay type: cell-based
RKO [7] = experiment: Binding affinity to F-actin in human RKO cells assessed as disruption of cytoskeleton organization by measuring transforming regular fibrous into punctuate structure at 50 uM incubated for 48 hrs by tetramethylrhodamine-phalloidin staining based confocal laser scanning microscopy; assay type: cell-based
HeLa [8] = experiment: Binding affinity to F-actin in human HeLa cells assessed as disruption of cytoskeleton organization by measuring transforming regular fibrous into punctuate structure at 0.9 uM incubated for 48 hrs by tetramethylrhodamine-phalloidin staining based confocal laser scanning microscopy; assay type: cell-based
RKO [9] = experiment: Binding affinity to F-actin in human RKO cells assessed as disruption of cytoskeleton organization by measuring transforming regular fibrous into punctuate structure at 0.8 uM incubated for 48 hrs by tetramethylrhodamine-phalloidin staining based confocal laser scanning microscopy; assay type: cell-based
RKO [10] = experiment: Binding affinity to F-actin in human RKO cells assessed as disruption of cytoskeleton organization by measuring transforming regular fibrous into punctuate structure at 1.6 uM incubated for 48 hrs by tetramethylrhodamine-phalloidin staining based confocal laser scanning microscopy; assay type: cell-based
HeLa [11] = experiment: Binding affinity to F-actin in human HeLa cells assessed as disruption of cytoskeleton organization by measuring transforming regular fibrous into punctuate structure at 2 uM incubated for 48 hrs by tetramethylrhodamine-phalloidin staining based confocal laser scanning microscopy; assay type: cell-based
HeLa [12] = experiment: Binding affinity to F-actin in human HeLa cells assessed as disruption of cytoskeleton organization by measuring transforming regular fibrous into punctuate structure at 27.8 uM incubated for 48 hrs by tetramethylrhodamine-phalloidin staining based confocal laser scanning microscopy; assay type: cell-based
RKO [13] = experiment: Binding affinity to F-actin in human RKO cells assessed as disruption of cytoskeleton organization by measuring transforming regular fibrous into punctuate structure at 16.7 uM incubated for 48 hrs by tetramethylrhodamine-phalloidin staining based confocal laser scanning microscopy; assay type: cell-based
HeLa [14] = experiment: Binding affinity to F-actin in human HeLa cells assessed as disruption of cytoskeleton organization by measuring transforming regular fibrous into punctuate structure at 12.3 uM incubated for 48 hrs by tetramethylrhodamine-phalloidin staining based confocal laser scanning microscopy; assay type: cell-based
RKO [15] = experiment: Binding affinity to F-actin in human RKO cells assessed as disruption of cytoskeleton organization by measuring transforming regular fibrous into punctuate structure at 11.1 uM incubated for 48 hrs by tetramethylrhodamine-phalloidin staining based confocal laser scanning microscopy; assay type: cell-based

Row | Compound | Activity (RKO [1]) | Activity (HeLa [2]) | IC50 (HeLa [3]) [µM] | Activity (HeLa [4]) | IC50 (RKO [5]) [µM] | Activity (RKO [6]) | Activity (RKO [7]) | Activity (HeLa [8]) | Activity (RKO [9]) | Activity (RKO [10]) | Activity (HeLa [11]) | Activity (HeLa [12]) | Activity (RKO [13]) | Activity (HeLa [14]) | Activity (RKO [15])
1 | CC1=C[C@@H]2/C=C/C[C@H](C)C[C@@](C)(O)/C=C/[C@@H](O)[C@]23C(=O)N[C@@H](Cc2ccccc2)[C@@H]3[C@@H]1C | Dose-dependent-effect | Dose-dependent-effect | > 50 | Active | 33.5 | Active |  |  |  |  |  |  |  |  | 
2 | CC1=C[C@@H]2[C@@H]3[C@H](/C=C(/C)C[C@@H](C)C[C@H]3O)[C@@H](O)[C@]23C(=O)N[C@@H](Cc2ccccc2)[C@@H]3[C@@H]1C | Dose-dependent-effect | Dose-dependent-effect | > 50 | Active | 45.2 |  | Active |  |  |  |  |  |  |  | 
3 | C=C1[C@@H](C)[C@H]2[C@H](Cc3ccccc3)NC(=O)[C@]23[C@H](OC(C)=O)/C=C/[C@](C)(O)C[C@@H](C)C/C=C/[C@H]3[C@@H]1O | Dose-dependent-effect | Dose-dependent-effect | 0.9 |  | 0.8 |  |  | Active | Active |  |  |  |  |  | 
4 | CC1=C[C@@H]2/C=C/C[C@H](C)C[C@@](C)(O)/C=C/C(=O)[C@]23C(=O)N[C@@H](Cc2ccccc2)[C@@H]3[C@@H]1C | Dose-dependent-effect | Dose-dependent-effect | 2 |  | 1.6 |  |  |  |  | Active | Active |  |  |  | 
5 | CC1=C[C@@H]2[C@@H](C[C@H](C)C1)[C@@H](O)[C@H]1C=C(C)[C@@H](C)[C@H]3[C@H](Cc4ccccc4)NC(=O)[C@]31[C@@H]2O | Dose-dependent-effect | Dose-dependent-effect | > 50 | Active | 47.3 |  | Active |  |  |  |  |  |  |  | 
6 | CC1=C[C@H]2[C@H]3OC(=O)[C@@]24C(=N[C@@H](Cc2ccccc2)[C@@H]4[C@@H]1C)C[C@H]1[C@H]3C[C@H](C)C[C@@]1(C)O | Dose-dependent-effect | Dose-dependent-effect | 27.8 |  | 16.7 |  |  |  |  |  |  | Active | Active |  | 
7 | CC(=O)O[C@@H]1/C=C/[C@](C)(O)C[C@@H](C)C/C=C/[C@H]2C=C(C)[C@@H](C)[C@H]3[C@H](Cc4ccccc4)NC(=O)[C@]321 | Dose-dependent-effect | Dose-dependent-effect | 12.3 |  | 11.1 |  |  |  |  |  |  |  |  | Active | Active

Reference: ChEMBL document CHEMBL6153107, “Derailment of the Biosynthesis via an Acid-Mediated Intramolecular Cyclo-rearrangement Leads to a Novel Cytochalasin Skeleton” (J Nat Prod, 2025)
